Reference: US20050047997A1, “Method for the evaluation of the efficiency of a therapeutic action upon the human organism” (priority 1997, published 2005)

How the values were obtained:
Assay type in all cases: in vivo, human
[1] = Electrolytic homeostasis (sodium level) in treated hypertension patients; details: initial level 140 mmol/l
Protocol: (§1) Selected hypertension patients are divided into two groups. The reference group includes 48 patients and the experimental group includes 56 patients. Each group consists of 60% of females, the rest being males. All the patients in the same group differ in age by not more than 1 year. The patients from the experimental group are treated with a hypotensive medication belonging to calcium current blocking agents—Corinfar, (see […], lines from 1 to 3), while those from the reference group are treated with a medication that blocks angiotensin-transforming enzyme (ATE) Prestarium (see FIG. 3, lines from 4 to 6). The period from the beginning of the relapse till the inclusion of the patient into the experiment is chosen to be 2 days. The phase of the disease is selected to be hypertension of medium exacerbation. The prevailing disease localization is its cerebral variant, in other words, the variant characterized by prevailing damage of cerebral vessels. The initial level of the homeostasis characteristics is set by the characteristic of electrolytic homeostasis, i.e. the sodium level, and is equal to 140 mmol/l for both groups. The patients' arterial pressure was monitored every other day, which corresponded to the period of time that is characterized by a significant decrease in arterial pressure under the effect of ATE blocking agent. […]

arterial pressure = experiment: Arterial pressure monitoring in hypertension patients; details: monitored every other day
Protocol: as §1

ulcerous defect = experiment: Ulcer healing (cicatrization of ulcerous defect) in ulcer patients; details: compared with the other group
Protocol: As a result, each group consists of patients of the same sex or features the same proportion of males and females who differ in age by not more than one year. […] Thus, patients with the stomach ulcer are ranked by the ulcerous defect localization with the accuracy of 1/9th of the stomach sections: cardia, subcardia, upper, middle and lower thirds of the stomach body, angle, anthral and prepyloric sections, pylorus. The initial surface area of the ulcerous defect is measured. Then the current stage (phase) of the disease: acute stage (the stage of ulcer forming), stationary stage or “plateau” and the stage of reparation proper (see FIG. 4) is determined for each patient on the basis of clinical, laboratory and instrumental indications. These phases characterize the period of time that passed since the beginning of relapse (exacerbation or start) of the disease till the patient was included into the clinical experiment. […]
The quantitative number of patients in groups must provide the statistical reliability of the results. In the given example the group treated with a reference medical preparation consisted of 73 patients, while the group treated with the medical preparation that had to be evaluated consisted of 81 patients. […] The control time is determined for the selected groups of ulcer patients. […]

[2] = Homeostasis (lipid metabolism) indicators in treated ulcer patients
Protocol: As a result, each group consists of patients of the same sex or features the same proportion of males and females who differ in age by not more than one year. […] Thus, patients with the stomach ulcer are ranked by the ulcerous defect localization with the accuracy of 1/9th of the stomach sections: cardia, subcardia, upper, middle and lower thirds of the stomach body, angle, anthral and prepyloric sections, pylorus. The initial surface area of the ulcerous defect is measured. Then the current stage (phase) of the disease: acute stage (the stage of ulcer forming), stationary stage or “plateau” and the stage of reparation proper (see FIG. 4) is determined for each patient on the basis of clinical, laboratory and instrumental indications. These phases characterize the period of time that passed since the beginning of relapse (exacerbation or start) of the disease till the patient was included into the clinical experiment. The method in question uses homeostasis indications, particularly those related to lipid metabolism, for the evaluation of the efficiency of the therapeutic action. Based on the above principle, the patients are divided into subgroups according to the following classification: • cholesterol (CS); • high density lipoproteins (HDLP); • low density lipoproteins (LDLP); • very low density lipoproteins (VLDLP); • triglycerides (TG); • atherogenicity factor (AF).
The quantitative number of patients in groups must provide the statistical reliability of the results. In the given example the group treated with a reference medical preparation consisted of 73 patients, while the group treated with the medical preparation that had to be evaluated consisted of 81 patients. The reference group was treated with a medication belonging to proton pump blocking agent (for example, Zerocid), while the experimental group was treated with a medication belonging to antacids (for example, Maalox). If the studied medications are only to be ranked by the efficiency of their action upon the organism rather than compared with each other, placebo can be used as a reference medication. The control time is determined for the selected groups of ulcer patients. The control is performed individually for each ranked experimental group. […]
The initial efficiency criterion was a complete healing of ulcerous defect combined with the dynamics of the change in homeostasis characteristics. The individual temporal norm was represented by a time interval calculated on the basis of individual characteristics of the ulcer healing process that corresponded to the individual characteristics of the homeostasis indications, for instance, to the characteristics of lipid metabolism calculated by the known formulas. […]

Row | SMILES | level of sodium after treatment [1] [µM] | arterial pressure change as a result of treatment (arterial pressure) | cicatrization of ulcerous defects (ulcerous defect) | effect upon the atherogenesis and oncogenesis judged from lipid spectrum indications [2] | HDLP indicators ([2]; FIG. 2a, lines 1-16) | atherogenicity factor (AF) ([2]; during treatment) | level of triglycerides (TG) ([2]; during treatment)
1 | CCC[C@H](N[C@@H](C)C(=O)N1[C@H](C(=O)O)C[C@@H]2CCCC[C@@H]21)C(=O)OCC [Prestarium] | 137000 | decreased by comparable values | – | – | – | – | –
2 | COC(=O)C1=C(C)NC(C)=C(C(=O)OC)C1c1ccccc1[N+](=O)[O-] [Corinfar] | 146000 | decreased by comparable values | – | – | – | – | –
3 | COc1ccc2[nH]c([S+]([O-])Cc3ncc(C)c(OC)c3C)nc2c1 (stereo not drawn) [Zerocid] | – | – | faster | clearly negative effect | decreasing | increasing | increasing
